Measured values published in article PMC6105845, “Nucleotide Prodrug Containing a Nonproteinogenic Amino Acid To Improve Oral Delivery of a Hepatitis C Virus Treatment” (Antimicrobial Agents and Chemotherapy, 2018).

Target: HINT1 (Homo sapiens, UniProt P49773)
Assay: P-N bond cleavage of metabolite X by HINT1
Type: biochemical
Protocol: Biochemical assays studying prodrug cleavage have been described previously ([8]). In brief, the cleavages of GS2 by CATA, CES1, CES2, and HINT1 were assessed in vitro. The reaction substrates and products were monitored over time by high-performance liquid chromatography (HPLC).

Sequence of HINT1 (P49773 whole entry): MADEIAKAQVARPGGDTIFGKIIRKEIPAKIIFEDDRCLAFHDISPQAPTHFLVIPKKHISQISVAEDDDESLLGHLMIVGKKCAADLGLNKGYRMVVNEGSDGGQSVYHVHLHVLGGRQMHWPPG

Row | HINT1 specific activity, P-N bond cleavage [pmol/min/µg] | HINT1 specific activity higher than toward metabolite X of GS-6620 [fold] | SMILES
1 | 60 |  | C[C@H](NP(=O)(O)OC[C@H]1O[C@@](C#N)(c2ccc3c(N)ncnn23)[C@](C)(O)[C@@H]1O)C(=O)O [metabolite X of GS-6620]
2 | 341 | 5.7 | CC(C)(NP(=O)(O)OC[C@H]1O[C@@](C#N)(c2ccc3c(N)ncnn23)[C@](C)(O)[C@@H]1O)C(=O)O [metabolite X of GS2]
